Assay results taken from patent US20260209234A1, “SUBSTITUTED DIHYDROPYRROLO[3,4-D]PYRIMIDINE COMPOUNDS AND THEIR USE IN TREATING MEDICAL CONDITIONS” (Karuna Therapeutics, Inc., priority 2022, published 2026).

Key:
hM4 receptors = molecular target: T1, hM4 receptors (Homo sapiens, UniProt P08173); test: Human M4 PAM pERK assay; type: cell-based; details: CHO cells expressing hM4; EC20 of acetylcholine (10 nM final); TR-FRET
T1 construct: expressed in transfected cells; host or cells: CHO cells
T1 sequence (P08173 1-479): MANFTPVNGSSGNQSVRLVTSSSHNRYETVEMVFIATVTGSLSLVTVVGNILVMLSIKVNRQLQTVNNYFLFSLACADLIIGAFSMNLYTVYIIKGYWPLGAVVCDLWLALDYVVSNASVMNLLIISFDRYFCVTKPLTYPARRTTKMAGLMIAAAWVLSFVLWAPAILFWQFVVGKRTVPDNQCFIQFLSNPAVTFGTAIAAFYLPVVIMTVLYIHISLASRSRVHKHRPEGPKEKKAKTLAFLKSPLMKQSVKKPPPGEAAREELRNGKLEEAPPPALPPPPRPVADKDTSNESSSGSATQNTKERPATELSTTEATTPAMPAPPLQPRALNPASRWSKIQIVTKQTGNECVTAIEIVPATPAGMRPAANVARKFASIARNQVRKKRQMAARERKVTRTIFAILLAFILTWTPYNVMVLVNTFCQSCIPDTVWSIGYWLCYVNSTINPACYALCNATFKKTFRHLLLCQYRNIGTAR

rM4 receptors = molecular target: T2, rM4 receptors (Rattus norvegicus, UniProt P08485); test: Rat M4 PAM pERK assay; type: cell-based; details: CHO cells expressing rM4; EC20 of acetylcholine (10 nM final); TR-FRET
T2 construct: expressed in transfected cells; host or cells: CHO cells
T2 sequence (P08485 1-478): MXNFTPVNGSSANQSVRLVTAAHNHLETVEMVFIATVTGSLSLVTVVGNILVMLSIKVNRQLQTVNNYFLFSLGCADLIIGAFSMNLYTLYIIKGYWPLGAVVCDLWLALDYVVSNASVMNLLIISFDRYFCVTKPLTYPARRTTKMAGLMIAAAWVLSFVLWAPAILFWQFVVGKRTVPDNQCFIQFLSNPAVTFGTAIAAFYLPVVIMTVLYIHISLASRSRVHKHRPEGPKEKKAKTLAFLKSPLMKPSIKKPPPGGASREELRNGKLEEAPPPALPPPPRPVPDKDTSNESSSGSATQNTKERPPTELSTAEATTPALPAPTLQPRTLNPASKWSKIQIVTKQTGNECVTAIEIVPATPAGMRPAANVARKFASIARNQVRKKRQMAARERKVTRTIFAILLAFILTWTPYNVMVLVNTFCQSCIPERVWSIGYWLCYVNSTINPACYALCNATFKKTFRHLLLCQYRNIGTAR

human M4 receptor = molecular target: T3, human M4 receptor (Homo sapiens, UniProt P08173); test: M4 GTPγS PAM assay; type: biochemical; details: membranes of CHO-K1 cells stably expressing human M4; EC20 acetylcholine 40 nM; 35S-GTP
T3 construct: expressed in transfected cells
T3 sequence (P08173 1-479): T1 sequence (P08173 1-479)
Procedure: The M4 GTPγS PAM method was used. Membranes were prepared for GTPgS binding assays from CHO-K1 cells stably expressing human M4 receptor. Briefly, cells were grown in 5-layer cell culture flasks. Cells were washed with 50 mL of PBS and then dissociated with 0.05% trypsin. Dissociated cells were then collected by centrifugation at 650×g for 8 minutes at 4° C. Pellets were washed again in PBS by centrifugation and resuspended in 30 mL of 20 mM HEPES, 10 mM EDTA, pH 7.4. After sitting on ice for 30 min, membranes were collected by centrifugation at 50000×g for 15′ at 4° C., resuspended in 30 mL of 20 mM HEPES, 0.1 mM EDTA, pH 7.4 and collected again by centrifugation. Pellets were then washed twice by centrifugation in 30 mL of 20 mM HEPES, pH 7.4, and stored at −80° C. until the day of the assay. On the day of the assay, pellets were thawed on ice and resuspended in 1 mL of 20 mM HEPES, pH 7.4, 10 mM MgCl2, 100 mM NaCl using dounce homogenization. Membrane protein concentration is determined by BCA protein assay (Promega, Madison, WI) according to Promega guidelines.
On the day of the assay, serial dilutions of test PAM compounds were brought up in assay buffer (20 mM HEPES, 10 mM MgCl2, 100 mM NaCl) at 4× final assay concentration. […] of membrane homogenates (containing […] of membrane protein) were prepared in assay buffer supplemented with GDP at 4× final assay concentration (final assay concentration of GDP is 5 μM for M2 and 0.1 μM for M4) and dispensed into 96 well polypropylene, U-bottom Greiner plates. […] of vehicle or test PAM compound at 4× of final assay concentration diluted in the assay buffer were added to membrane and plates are incubated for 10-15 minutes at room temperature with gentle shaking. Then, […] of EC20 acetylcholine in assay buffer at 4× final assay concentration was added to assay plates (EC20 final assay concentrations was 40 nM for human M4).
Plates were then incubated, with shaking, for an additional 10-15 minutes. […] of 0.4 nM 35S-GTP (Perkin Elmer, Waltham, MA) in assay buffer was added to assay mixtures. The binding reaction is left on the shaker for 1 hour at room temperature. Membranes in assay reactions were then transferred to GF/C filter plates (Unifilter, Perkin Elmer) and washed three times using a FilterMate Harvester (Perkin Elmer) with cold assay buffer containing no GDP. Filter plates were then dried at 40° C. overnight followed by the addition of […] of Beta Plate Scintillation liquid. Plates are top and bottom sealed before being read on TopCount scintillation counter (Perkin Elmer, Waltham, MA).

| EC50 (hM4 receptors) [nM] | EC50 (rM4 receptors) [nM] | EC50 (human M4 receptor) [nM] | Structure (SMILES) |
| --- | --- | --- | --- |
| 500 to 2000 | 500 to 2000 | 100 to 500 | COc1nc(C2CC2)nc2c1CN(C(=O)CC1CN(c3ccnc(C(F)(F)F)c3)C1)C2 [Compound I-79, 1-(2-Cyclopropyl-4-methoxy-5,7-dihydro-6H-pyrrolo[3,4-d]pyrimidin-6-yl)-2-(1-(2-(trifluoromethyl)pyridin-4-yl)azetidin-3-yl)ethan-1-one] |
| ≥ 2000 | ≥ 2000 | ≥ 2000 | COc1nc2c(c(C3CCC3)n1)CN(C(=O)CC1CN(c3ccnc(C(F)(F)F)c3)C1)C2 [Compound I-74, 1-(4-Cyclobutyl-2-methoxy-5,7-dihydro-6H-pyrrolo[3,4-d]pyrimidin-6-yl)-2-(1-(2-(trifluoromethyl)pyridin-4-yl)azetidin-3-yl)ethan-1-one] |
| ≥ 2000 | ≥ 2000 | ≥ 2000 | COc1nc(C#N)nc2c1C(C)N(C(=O)CC1CN(c3cccc(C(F)(F)F)c3)C1)C2 (single isomer, unassigned) [Compound I-15, 4-Methoxy-5-methyl-6-(2-(1-(3-(trifluoromethyl)phenyl)azetidin-3-yl)acetyl)-6,7-dihydro-5H-pyrrolo[3,4-d]pyrimidine-2-carbonitrile] |
| 100 to 500 | 500 to 2000 | ≤ 100 | COc1nc(Cl)nc2c1CN(C(=O)CC1CN(c3ccnc(C(F)(F)F)c3)C1)C2 [Compound I-1, 1-(2-Chloro-4-methoxy-5,7-dihydro-6H-pyrrolo[3,4-d]pyrimidin-6-yl)-2-(1-(2-(trifluoromethyl)pyridin-4-yl)azetidin-3-yl)ethan-1-one] |
| ≥ 2000 | ≥ 2000 | ≥ 2000 | COc1nc(C#N)nc2c1C(C)N(C(=O)CC1CN(c3cccnc3)C1)C2 (single isomer, unassigned) [Compound I-7, 4-Methoxy-5-methyl-6-(2-(1-(pyridin-3-yl)azetidin-3-yl)acetyl)-6,7-dihydro-5H-pyrrolo[3,4-d]pyrimidine-2-carbonitrile] |
| 100 to 500 | 500 to 2000 | ≥ 2000 | COc1nc(C#N)nc2c1CN(C(=O)CC1CN(c3ccnc(C(F)(F)F)c3)C1)C2C (single isomer, unassigned) [Compound I-35, 4-Methoxy-7-methyl-6-(2-(1-(2-(trifluoromethyl)pyridin-4-yl)azetidin-3-yl)acetyl)-6,7-dihydro-5H-pyrrolo[3,4-d]pyrimidine-2-carbonitrile] |
| 500 to 2000 | 500 to 2000 | ≥ 2000 | COc1nc(C#N)nc2c1C(C)N(C(=O)CC1CN(c3ccnc(C(F)(F)F)c3)C1C)C2 (single isomer, unassigned) [Compound I-39, 4-Methoxy-5-methyl-6-(2-(2-methyl-1-(2-(trifluoromethyl)pyridin-4-yl)azetidin-3-yl)acetyl)-6,7-dihydro-5H-pyrrolo[3,4-d]pyrimidine-2-carbonitrile] |
| ≤ 100 | 100 to 500 | ≤ 100 | COc1nc(C#N)nc2c1C(C)N(C(=O)CC1CN(c3ccnc(OC(F)F)c3)C1)C2 (single isomer, unassigned) [Compound I-28, 6-(2-(1-(2-(Difluoromethoxy)pyridin-4-yl)azetidin-3-yl)acetyl)-4-methoxy-5-methyl-6,7-dihydro-5H-pyrrolo[3,4-d]pyrimidine-2-carbonitrile] |
| 100 to 500 | 100 to 500 | 100 to 500 | COc1nc(C#N)nc2c1C(C)N(C(=O)CC1CN(c3ccc(C4CC4)c(F)c3)C1)C2 (single isomer, unassigned) [Compound I-22, 6-(2-(1-(4-Cyclopropyl-3-fluorophenyl)azetidin-3-yl)acetyl)-4-methoxy-5-methyl-6,7-dihydro-5H-pyrrolo[3,4-d]pyrimidine-2-carbonitrile] |
| 500 to 2000 | ≥ 2000 | ≥ 2000 | Cc1nc2c(c(OC3CC3)n1)CN(C(=O)CC1CN(c3cccnc3)C1)C2 [Compound I-48, 1-(4-Cyclopropoxy-2-methyl-5,7-dihydro-6H-pyrrolo[3,4-d]pyrimidin-6-yl)-2-(1-(pyridin-3-yl)azetidin-3-yl)ethan-1-one] |
